Experimental data: patent US6555091B1, “Polypeptide capable of reacting with antibodies of patients suffering from multiple sclerosis and uses” (Bio Merieux, priority 1997, dated 2003)
No end group written: not given here.

Legend:
Format in all cases: binding, human
[1] = tested on: IgG of pool of positive sera (MS remission sera); assay: ELISA of pentadecapeptide phage clones, pool of positive sera versus pool of negative sera; details: phage clones carrying the sequence; 1/200 serum dilution; pool of positive sera compared with pool of negative sera
Experimental: In a first instance, 100 μl of anti-M13 phage antibodies diluted 1/500 in 0.1M NaHCO3, pH 8.6 (marketed by Prinn, Inc. Boulder, Colo. 80303) are bound overnight in the wells of Nunc maxisorb (trade name) microtiter plates. After three washes with TBS/0.05% Tween, the plates are passivated for 1 hour at 37° C. with 250 μl of TBS containing 10% goat serum and again washed three times with the same buffer. 100 μl of various purified phage clones are then incubated for 2 hours at 37° C. in the wells. […] After four washes in TBS/0.05% Tween, 100 μl of peroxidase-labeled anti-human IgG conjugate diluted 1/10,000 (marketed by Jackson Immuno Research Laboratories Inc.) are added before an incubation for one hour at 37° C. […] The staining reaction is interrupted by the addition of 50 μl of 1.8N sulfuric acid. The optical density is measured on a BioMérieux plate reader at 492 nm. The IgM response is determined by addition of 100 μl of biotinylated anti-IgM conjugate diluted 1/4000 (Biomérieux monoclonal antibody) followed by the addition, after the washes, of the streptavidin-peroxidase conjugate diluted 1/10,000.
A library of pentadecapeptides carried on 300 copies of the phage protein VIII was constructed on the same principle as the hexapeptide library using the vector f88-4 according to the work by Greewood et al. (J. Biol. Mol. 1991). […]

[2] = tested on: IgG of CSF from patients suffering from MS; assay: ELISA of polypeptides, IgG response of CSFs diluted 1/10 (Table 5, FIGS. 7A and 7B); parameters: key to IgG recognition by CSF: positive (+) if the OD value at 492 nm for a 1/10 dilution of the CSF is greater than the mean values obtained for the CSFs from the ND patients+3 times the standard deviation; details: for number of positive (+) CSFs: total line, 15 MS patients, CSF 1/10
Text: FIGS. 7A and 7B represents the IgG response of the polypeptides whose peptide sequence consists of, respectively, SEQ ID NO: 13, SEQ ID NO: 12, SEQ ID NO: 14, SEQ ID NO: 16, SEQ ID NO: 19 and SEQ ID NO: 15, with respect to CSFs diluted 1/10; the results assembled in the appended Table 5 are expressed by the difference in the optical density values obtained for the polypeptide tested and the values obtained for the HIV polypeptide used as control; ND corresponds to patients suffering from a neurological disease other than MS, and MS* corresponds to patients suffering from MS.
Table 5, illustrated in FIGS. 7A and 7B, collates the results on the specific recognition of CSF from patients suffering from MS for 6 polypeptides of the invention, SEQ ID NO: 13, SEQ ID NO: 12, SEQ ID NO: 14, SEQ ID NO: 16, SEQ ID NO: 19 and SEQ ID NO: 15.
For each polypeptide tested, identified in Table 5 by its peptide sequence, the CSFs from patients 1-22 suffering from Ms are determined as positive (+) if the OD value at 492 nm for a 1/10 dilution of the CSF is greater than the mean values obtained for the CSFs from the ND patients+3 times the standard deviation.

[3] = tested on: IgM of cerebrospinal fluids from patients suffering from MS; assay: ELISA of pentadecapeptide phage clones, IgM response of CSFs (FIG. 6); details: CSF 4 and CSF 7 (MS), CSF 12 (other neurological disease), CSFs diluted 1/10
Text: FIG. 6 represents the IgM response of the CSFs with respect to phages expressing the sequences SEQ ID NO: 14 (EPM), SEQ ID NO: 13 (FCP), SEQ ID NO: 16 (SRG), SEQ ID NO: 17 (QSP) , with respect to the wild-type phage (without an expressed sequence) and another nonspecific sequence (RTG); this representation is given by a histogram grouping together the results expressed as optical density values obtained for each CSF reduced by those obtained with PBS buffer controls in place of the phages; the immunoreactivity of the phage clones is tested in ELISA as described in Example 2, with respect to CSFs diluted 1/10; CSF 12 corresponds to a patient suffering from a neurological disease other than MS; CSF 4 and CSF 7 correspond to two patients suffering from MS.
In a first instance, 100 μl of anti-M13 phage antibodies diluted 1/500 in 0.1M NaHCO3, pH 8.6 (marketed by Prinn, Inc. Boulder, Colo. 80303) are bound overnight in the wells of Nunc maxisorb (trade name) microtiter plates. […] The optical density is measured on a BioMérieux plate reader at 492 nm. The IgM response is determined by addition of 100 μl of biotinylated anti-IgM conjugate diluted 1/4000 (Biomérieux monoclonal antibody) followed by the addition, after the washes, of the streptavidin-peroxidase conjugate diluted 1/10,000. […]

Sequence | average positive IgG response [1] | IgG recognition by CSF ([2]; CSF of MS patient 1, 1/10) | IgG recognition by CSF ([2]; CSF of MS patient 2, 1/10) | IgG recognition by CSF ([2]; CSF of MS patient 3, 1/10) | IgG recognition by CSF ([2]; CSF of MS patient 5, 1/10) | IgG recognition by CSF ([2]; CSF of MS patient 7, 1/10) | IgG recognition by CSF ([2]; CSF of MS patient 8, 1/10) | IgG recognition by CSF ([2]; CSF of MS patient 10, 1/10) | IgG recognition by CSF ([2]; CSF of MS patient 18, 1/10) | IgG recognition by CSF ([2]; CSF of MS patient 20, 1/10) | IgG recognition by CSF ([2]; CSF of MS patient 21, 1/10) | number of positive (+) CSFs [2] | recognition of the phage clone by CSFs [3]
SSAKSHCYAFCSGLP (cysteine pairing not given here) [SEQ ID NO: 11, pentadecapeptide carried by phage clones] | 0.248 |  |  |  |  |  |  |  |  |  |  |  | 
FCPPILPYSAWCPVP (MSRV) [SEQ ID NO: 13] |  | + | + | + | + | + | + | + | + | + | + | 10+ | recognized specifically by CSFs 7 and 4
EPMTPHQWITLYRSY (MSRV) [SEQ ID NO: 14] |  | + | + | + | + | + |  | + | + |  | + | 8+ | recognized only by CSF 7
NACYVDLFLGASVCP (cysteine pairing not given here) [SEQ ID NO: 10, pentadecapeptide carried by phage clones] | 0.069 |  |  |  |  |  |  |  |  |  |  |  | 
